System: breitblättrigew unerwünschte Pflanzen
Assay: Greenhouse herbicide test, pre- and post-emergence treatment
Type: in vivo
Conditions: 2,0 kg/ha a.S., Nachauflaufverfahren bzw. Vorauflaufverfahren, 2 bis 4 Wochen
Excerpt: Die herbizide Wirkfung der (3-Chlor-2-methylphenylethylamine der Formel I ließ sich durch Gewächshausversuche zeigen: Zur Aufzucht der Testpflanzen dienten Plastikblumentöpfe mit 300 cm³ Inhalt und lehmigem Sand mit etwa 3 % Humus als Substrat. Die Samen der Testpflanzen wurden nach Arten getrennt flach eingesät.
Bei Vorauflaufbehandlung wurden die aufbereiteten Wirkstoffe unmittelbar danach auf die Erdoberfläche aufgebracht. Sie wurden hierbei in Wasser als Verteilungsmittel suspendiert oder emulgiert und mittels fein verteilender Düsen gespritzt. Nach dem Aufbringen der Mittel wurden die Gefäße leicht beregnet, um Keimung und Wachstum in Gang zu bringen. Danach wurden die Gefäße mit durchsichtigen Plastikhauben abgedeckt, bis die Pflanzen angewaschsen waren. Diese Abdeckung fördert ein gleichmäßiges Keimen der Testpflanzen, sofern dies nicht durch die Wirkstoffe beeinträchtigt wird. Die Aufwandmengen betrugen 2,0 kg/ha.
Zum Zwecke der Nachauflaufbehandlung wurden die Testpflanzen je nach Wuchsform erst bis zu einer Wuchshöhe von 3 bis 15 cm angezüchtet und erst dann behandelt. Die Testpflanzen wurden dafür entweder direkt gesät und in den gleichen Gefäßen aufgezogen oder sie wurden als Keimpflanzen getrennt gezüchtet und einige Tage vor der Behandlung in die Versuchsgefäße verpflanzt. Die Aufwandmengen für die Nachauflaufbehandlung betrugen 2,0 kg Wirkstoff/ha. […]

**Q.** How did the “herbizide Wirkung (Bekämpfung breitblättriger unerwünschter Pflanzen)” value turn out when Cc1c(Cl)cccc1CCNC(=O)c1ccccc1 [Beispiel 3, N-Benzoyl-3-chlor-2-methylphenethylamin] was run?
**A.** sehr gut

From patent EP0340709A1, “(3-Chloro-methyl phenyl)ethyl amines, processes for their production and their use” (BASF Aktiengesellschaft, priority 1988, dated 1989)
